# Assay results: patent US8735443B2, “Method of treating diabetes-related vascular complications” (Kuwait University, priority 2008, dated 2014)
# Tests used:
# aortic tissue = experiment: Aortic superoxide production, lucigenin-enhanced chemiluminescence; format: in vivo, rat; settings: GK rats, LA 50 mg/kg i.p. daily for four weeks
# Method: In the study, with regard to measurement of vascular superoxide anion formation, O2^− concentration in aortic tissue was determined using a lucigenin-enhanced chemiluminescence method, and the resulting data were further confirmed by a cytochrome c-based technique. Segments of the thoracic aorta were placed into 2 ml Krebs-Henseleit buffer (KHB, pH 7.4), and prewarmed to 37° C. for one hour. Immediately before measurement, rings were transferred to scintillation vials containing KHB with 5 μmol/L lucigenin and the O2^− generated chemiluminescence was recorded for five minutes with a scintillation counter. The amount of O2^− produced was quantified using a standard curve of O2^− generation by xanthine/xanthine oxidase and the data are expressed as nmol per min, per mg, of wet weight. In some experiments, vessels were denuded of endothelium by gentle rubbing of the luminal surface, whereas in others, N^ω-nitro-L-arginine methyl ester (L-NAME) 0.1 mM, diphenylene iodonium 0.1 mM, or apocynin 3 mM were added 60 min before determining O2^− generation.
# diabetic fibroblasts = experiment: Inflammatory cytokine release by fibroblasts, ELISA; format: cell-based, rat; settings: lipoic acid 500 μM, Nrf2-dependent
# From the text: To determine the effect of α-lipoic acid on isolated cells from normal and diabetic rats, primary rat fibroblasts were derived from dorsal skin biopsies performed on four diabetic Coto Kakizaki rats (DFs) and four age-matched (12-14 months) and sex-matched (female) Wistar control rats (CFs). After sterilization in povidine solution, the rat skin was washed in sterile water and rinsed in 70% ethanol in phosphate-buffered saline (PBS). The epidermis and dermis were separated following overnight incubation in 0.25% Trypsin/EDTA at 4° C. Samples were washed, diced and digested for thirty minutes at 37° C. in collagenase type I (250 U/ml) dissolved in Dulbecco's modified Eagle medium (DMEM; Invitrogen) containing penicillin (100 U/ml), 2 mM L-glutamine and 26 mM HEPES. After collagenase treatment, the cells were dislodged, centrifuged and resuspended in medium supplemented with 10% fetal bovine serum. […]
# With regard to ELISA assays to determine cytokine expression levels, control and diabetic fibroblasts were seeded on a 6-well plate at 2.5×10^5 cells/well. […] After incubation for 16 hr, supernatants were collected and analyzed for key inflammatory cytokines, including TNF-α, IL-1β, fractalkine and monocyte chemoattractant protein-1 (MCP-1) using commercially available ELISA kits specific for rats and according to the protocols provided by the manufacturers (R&D and Ray Biotech). […]
# TNF-α = experiment: Aortic mRNA expression by QRT-PCR, TNF-α; format: in vivo, rat; settings: GK rats, LA chronic therapy
# Method: Further, with regard to quantitative real-time polymerase chain reactions (PCR) in the study, total RNA from the arterial samples was isolated using TRIZOL® reagent, and RNA integrity was verified by agarose gel electrophoresis and quantified by spectrophotometry. Reverse transcription reaction of total RNA (5 μg) was performed using a superscript 111 first-strand synthesis system. Quantitative real-time PCR was performed using fast SYBR Green QPCR. […]
# The housekeeping gene beta-actin was used for internal normalization. Fidelity of the PCR reaction was determined by melting temperature analysis. PCR efficiency for each primer pair was determined by quantitating amplification with increasing concentration of template cDNA. […] RNA expression of target genes was calculated based on the real-time PCR efficiency E and the threshold crossing point (CP) and is expressed relative to the reference gene beta-actin.
# aortic tissues = experiment: Apoptotic cell death ELISA, cytoplasmic histone-associated DNA fragments in aorta; format: in vivo, rat
# Method: With regard to the assessment of apoptotic cell death using enzyme-linked immuno-absorbent-based assay, aortic tissues derived from control, GK and LA-treated GK rats were lysed and cytoplasmic histone-associated DNA fragments, indicating apoptotic cell death were determined by the Cell Death ELISA® plus kit. Data are reported as arbitrary optical density units normalized to protein concentration.
smiles,measurement,setting,value
"O=C(O)CCCCC1CCSS1 (stereo not drawn) [LA, alpha-lipoic acid]",diabetes-mediated increase in aortic superoxide production,aortic tissue,suppression
same,release of inflammatory cytokines by diabetic fibroblasts,diabetic fibroblasts,ameliorated
same,diabetes related up-regulation of TNF-α mRNA (aorta),TNF-α,Reversal
same,reduction of DNA fragmentation rate in diabetic arteries,"aortic tissues; chronic LA treatment, GK rats",42%
same,LA-mediated antiapoptotic effect after discontinuation,aortic tissues; two weeks after discontinuation of therapy,markedly reduced
